Measured values published in patent US20160311791A1, “NOVEL TRICYCLIC CALCIUM SENSING RECEPTOR ANTOGONISTS FOR THE TREATMENT OF OSTEOPOSOSIS” (MERCK SHARP & DOHME CORP., priority 2013, published 2016).

Target: T1, human CaSR (Homo sapiens, UniProt P41180)
T1 sequence (P41180 20-1078): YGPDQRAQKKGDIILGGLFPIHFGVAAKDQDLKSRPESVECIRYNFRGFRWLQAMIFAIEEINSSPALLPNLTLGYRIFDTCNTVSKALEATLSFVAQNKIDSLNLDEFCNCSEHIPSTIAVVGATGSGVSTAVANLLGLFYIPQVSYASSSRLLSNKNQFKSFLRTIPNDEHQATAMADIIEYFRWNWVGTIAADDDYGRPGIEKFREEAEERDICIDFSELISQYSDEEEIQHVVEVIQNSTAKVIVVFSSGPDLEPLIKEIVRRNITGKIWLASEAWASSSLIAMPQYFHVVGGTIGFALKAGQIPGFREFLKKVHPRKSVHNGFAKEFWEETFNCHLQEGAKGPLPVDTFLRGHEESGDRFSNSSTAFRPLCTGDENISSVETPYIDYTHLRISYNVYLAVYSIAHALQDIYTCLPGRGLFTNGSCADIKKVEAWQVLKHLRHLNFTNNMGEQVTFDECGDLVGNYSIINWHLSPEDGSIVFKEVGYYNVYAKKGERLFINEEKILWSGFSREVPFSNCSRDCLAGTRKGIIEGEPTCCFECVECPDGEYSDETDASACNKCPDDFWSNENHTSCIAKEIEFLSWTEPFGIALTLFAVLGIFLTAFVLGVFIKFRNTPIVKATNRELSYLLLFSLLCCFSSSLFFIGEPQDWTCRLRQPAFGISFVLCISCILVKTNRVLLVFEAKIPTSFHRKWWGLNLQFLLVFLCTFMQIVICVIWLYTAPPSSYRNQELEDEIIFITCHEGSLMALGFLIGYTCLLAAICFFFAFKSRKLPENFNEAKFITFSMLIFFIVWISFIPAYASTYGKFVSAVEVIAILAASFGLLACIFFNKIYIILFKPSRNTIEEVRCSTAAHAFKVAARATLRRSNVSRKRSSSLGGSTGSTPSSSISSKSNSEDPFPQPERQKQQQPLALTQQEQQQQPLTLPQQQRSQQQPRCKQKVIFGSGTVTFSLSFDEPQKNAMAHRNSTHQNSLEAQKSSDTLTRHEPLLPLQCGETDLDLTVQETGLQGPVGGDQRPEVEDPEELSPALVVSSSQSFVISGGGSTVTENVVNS
Test: CaSR FLIPR assay (calcilytic activity)
Type: cell-based
Parameters: expressed in transfected cells
Conditions: HEK293 cells stably expressing human recombinant CaSR; 1 mM CaCl2 agonist; Tables 1-24; read-out: FLIPR ASSAY IC50
Method: Procedures for CaSR FLIPR Assay
Calcilytic activity of the compound is measured in HEK293 cells stably expressing human recombinant CaSR (HEK-CaSR) using a FLIPR^TETRA device (Molecular Devices, Sunnyvale, Calif.) according to the manufacturer's directions. […] On the day of the assay, one vial of FLIPR Calcium 4 Assay Kit reagent Component A was equilibrated to room temperature. The content of the Component A vial was diluted by adding 10 ml dilution buffer (2×loading dye). The sample was mixed by vortexing (1-2 minutes) until the contents of the vial dissolved. The Component A vial mixture was diluted with 10 ml dilution buffer. Media was aspirated from the cells and 80 μl of loading buffer was added to each well. Plates were incubated for 1 hour at 37° C. and then placed at room temperature for 10 minutes. A two-stage method of generating 10-point serial dilutions was used. Compound was serially diluted in 100% DMSO (10 point, 3-fold dilution of each compound from 2 mM in 100% DMSO). 3 μl of serially diluted compound was transferred into a second assay microplate that contained 97 μl of TETRA dilution buffer (20 mM HEPES pH7.4, 1×HBSS without Ca and Mg, 0.4 mM CaCl2, 0.4 mM MgSO4, 0.5 mM MgCl2) to create the intermediate dilution plate. After reading the base line, the compounds in 0.5% DMSO in dilution buffer were added to their respective wells as 20 μl aliquots at 6×the final drug concentration. The fluorescence signals were then read. Subsequently, 20 μl of 3.6 mM of CaCl2 agonist (1 mM final concentration) was added to each well. For background, 20 μl of TETRA dilution buffer was added instead. The protocol consisted of a pre-addition read of 10 frames (10×1 frame/sec), a post 1st addition read of 100 frames (60×1 frame/sec, 40×1 frame/3 sec), pause 3 min, a post 2nd addition read of 100 frames (60×1 frame/sec, 40×1 frame/3 sec) on a FLIPR^TETRA Plate Reader.

SMILES | IC50
C[C@@H](OC[C@H](O)CNC(C)(C)Cc1ccc(Cl)c(Cl)c1)c1cccc2c1O[C@@H]1[C@@H](C(=O)O)[C@H]21 [Example 1-13] | 39 nM
C[C@@H](OC[C@H](O)CNC(C)(C)Cc1ccc2ccccc2c1)c1cccc2c1O[C@@H]1[C@@H](C(=O)NS(=O)(=O)C3(C)CC3)[C@H]21 [Example 4-1] | 60 nM
C[C@@H](OC[C@H](O)CNC(C)(C)COCc1ccccc1)c1cccc2c1O[C@H]1[C@H](C(=O)O)[C@@H]21 [Example 2-5] | 4220 nM
CC(OC[C@H](O)CNC(C)(C)Cc1ccc2ccccc2c1)c1ccc2c(c1)C1C(O2)C1C(=O)O (stereo partly shown) [Example 21-1] | 2720 nM
Cc1ccc([C@@H](C)OC[C@H](O)CNC(C)(C)CCCc2ccccc2)c2c1O[C@@H]1[C@@H](C(=O)O)[C@H]21 [Example 8-16] | 29 nM
COc1ccc(CC(C)(C)NC[C@@H](O)CO[C@H](C)c2cccc3c2[C@@H]2[C@H](O3)[C@H]2C(=O)O)c(F)c1 [Example 5-11] | 108 nM
C[C@@H](OC[C@H](O)CNC(C)(C)Cc1ccc(Cl)c(F)c1)c1cccc2c1[C@@H]1[C@H](O2)[C@H]1C(=O)O [Example 5-2] | 32 nM
Cc1ccc([C@@H](C)OC[C@H](O)CNC(C)(C)CSCc2ccccc2)c2c1O[C@@H]1[C@@H](C(=O)O)[C@H]21 [Example 8-29] | 500 nM
CSc1ccc(CC(C)(C)NC[C@@H](O)CO[C@H](C)c2cccc3c2[C@@H]2[C@H](O3)[C@H]2C(=O)O)cc1F [Example 5-14] | 27 nM
C[C@@H](OC[C@H](O)CNC(C)(C)Cc1ccc([S+](C)[O-])cc1)c1cccc2c1O[C@@H]1[C@@H](C(=O)O)[C@H]21 (stereo partly shown) [Example 1-16] | > 10000 nM
Cc1ccc([C@@H](C)OC[C@H](O)CNC(C)(C)Cc2ccc3sccc3c2)c2c1O[C@@H]1[C@@H](C(=O)O)[C@H]21 [Example 8-12] | 10 nM
Cc1ccc([C@@H](C)OC[C@H](O)CNC(C)(C)Cc2cc3ccccc3s2)c2c1O[C@@H]1[C@@H](C(=O)O)[C@H]21 [Example 8-6] | 96 nM
C[C@@H](OC[C@H](O)CNC(C)(C)Cc1ccc2ccccc2c1)c1cccc2c1[C@H]1[C@@H](C2)[C@@H]1C(=O)O [Example 13-6] | 4900 nM
Cc1cc(Cl)c([C@@H](C)OC[C@H](O)CNC(C)(C)Cc2ccc3sccc3c2)c2c1O[C@@H]1[C@@H](C(=O)O)[C@H]21 [Example 16-3] | 14 nM
C[C@@H](OC[C@H](O)CNC(C)(C)CC1Cc2ccccc2C1)c1cccc2c1O[C@H]1[C@H](C(=O)O)[C@@H]21 [Example 2-3] | 307 nM
Cc1ccc([C@@H](C)OC[C@H](O)CNC(C)(C)Cc2ccc(Cl)cc2Cl)c2c1O[C@H]1[C@H](C(=O)O)[C@@H]21 [Example 9-9] | 77 nM
Cc1ccc([C@@H](C)OC[C@H](O)CN2CCCC2Cc2ccccc2)c2c1O[C@@H]1[C@@H](C(=O)O)[C@H]21 (stereo partly shown) [Example 8-8] | 489 nM
C[C@@H](OC[C@H](O)CNC(C)(C)CCSc1ccccc1)c1cccc2c1[C@@H]1[C@H](O2)[C@H]1C(=O)O [Example 5-17] | 150 nM
C[C@@H](OC[C@H](O)CNC(C)(C)CCSc1ccccc1)c1cccc2c1O[C@@H]1[C@@H](C(=O)O)[C@H]21 [Example 1-20] | 330 nM
C[C@@H](OC[C@H](O)CNC(C)(C)Cc1ccc2ccccc2c1)c1cccc2c1C[C@H]1[C@H](C(=O)O)[C@@H]21 [Example 14-2] | 150 nM
Cc1ccc(CC(C)(C)NC[C@@H](O)CO[C@H](C)c2cccc3c2O[C@@H]2[C@@H](C(=O)O)[C@H]32)cc1F [Example 1-4] | 78 nM
Cc1ccc([C@@H](C)OC[C@H](O)CNC(C)(C)Cc2ccc3c(c2)CCC3)c2c1O[C@@H]1[C@@H](C(=O)O)[C@H]21 [Example 8-10] | 15 nM

SMILES | IC50
C[C@@H](OC[C@H](O)CNC(C)(C)Cc1ccc2occc2c1)c1cccc2c1O[C@@H]1[C@@H](C(=O)O)[C@H]21 [Example 1-6] | 49 nM
Cc1ccc([C@@H](C)OC[C@H](O)CNC(C)(C)Cc2cccc3ccccc23)c2c1O[C@@H]1[C@@H](C(=O)O)[C@H]21 [Example 8-9] | 119 nM
CC(OC[C@H](O)CNC(C)(C)Cc1ccc2ccccc2c1)c1cccc2c1C1C(S2)C1C(=O)O (stereo partly shown) [Example 23-1] | 42 nM
C[C@@H](OC[C@H](O)CNC(C)(C)Cc1ccc2sccc2c1)c1cccc2c1[C@@H]1[C@H](C2)[C@H]1C(=O)O [Example 13-4] | 36 nM
C[C@@H](OC[C@H](O)CNC(C)(C)CN1CCc2ccccc2C1)c1cccc2c1O[C@H]1[C@H](C(=O)O)[C@@H]21 [Example 2-8] | 7390 nM
CSc1ccc(CC(C)(C)NC[C@@H](O)CO[C@H](C)c2cccc3c2O[C@H]2[C@H](C(=O)O)[C@@H]32)cc1F [Example 2-9] | 830 nM
C[C@@H](OC[C@H](O)CNC(C)(C)C(=O)N1CCc2ccccc2C1)c1cccc2c1O[C@H]1[C@H](C(=O)O)[C@@H]21 [Example 2-7] | ≥ 10000 nM
Cc1ccc([C@@H](C)OC[C@H](O)CNC(C)(C)Cc2ccc3ccccc3c2)c2c1O[C@@H]1[C@@H](C(=O)O)[C@H]21 [Example 8-1] | 14 nM
C[C@@H](OC[C@H](O)CNC(C)(C)Cc1ccc2occc2c1)c1cccc2c1[C@@H]1[C@H](C2)[C@H]1C(=O)O [Example 13-2] | 47 nM
Cc1ccc([C@@H](C)OC[C@H](O)CNC(C)(C)Cc2ccc(Cl)c(Cl)c2)c2c1O[C@@H]1[C@@H](C(=O)O)[C@H]21 [Example 8-15] | 14 nM
CC(C)(Cc1ccc2ccccc2c1)NC[C@@H](O)COc1ccc2c(c1)C1C(O2)C1C(=O)O (stereo partly shown) [Example 22-1] | 3550 nM
COc1ccc(CC(C)(C)NC[C@@H](O)CO[C@H](C)c2ccc(C)c3c2[C@@H]2[C@H](O3)[C@H]2C(=O)O)c(F)c1 [Example 8-14] | 30 nM
C[C@@H](OC[C@H](O)CNC(C)(C)Cc1ccc2ccccc2c1)c1cccc2c1[C@@H]1[C@H](C2)[C@H]1C(=O)O [Example 13-1] | 28 nM
C[C@@H](OC[C@H](O)CNC(C)(C)Cc1ccc2ccccc2c1)c1ccc(Cl)c2c1C1C(O2)C1C(=O)O (stereo partly shown) [Example 18-1] | 40 nM
Cc1ccc([C@@H](C)OC[C@H](O)CNC(C)(C)Cc2ccc(F)c(F)c2)c2c1O[C@@H]1[C@@H](C(=O)O)[C@H]21 [Example 8-19] | 138 nM
Cc1ccc([C@@H](C)OC[C@H](O)CNC(C)(C)Cc2ccc3c(c2)CCS3)c2c1O[C@@H]1[C@@H](C(=O)O)[C@H]21 [Example 8-26] | 21 nM
C[C@@H](OC[C@H](O)CNC(C)(C)Cc1ccc2ccccc2c1)c1ccc(F)c2c1C1C(O2)C1C(=O)O (stereo partly shown) [Example 17-1] | 26 nM
C[C@@H](OC[C@H](O)CNC(C)(C)Cc1ccc(Cl)c(F)c1)c1cccc2c1O[C@H]1[C@H](C(=O)O)[C@@H]21 [Example 2-2] | 148 nM
Cc1ccc([C@@H](C)OC[C@H](O)CNC2(Cc3ccc4ccccc4c3)CCC2)c2c1O[C@H]1[C@H](C(=O)O)[C@@H]21 [Example 9-8] | > 10000 nM
Cc1cc(Cl)c([C@@H](C)OC[C@H](O)CNC(C)(C)Cc2ccc3ccccc3c2)c2c1O[C@@H]1[C@@H](C(=O)O)[C@H]21 [Example 16-1] | 9 nM
C[C@@H](OC[C@H](O)CNC(C)(C)Cc1ccc2occc2c1)c1cccc2c1[C@@H]1[C@H](O2)[C@H]1C(=O)O [Example 5-6] | 137 nM
